Laboratory results as given in US20110028447A1, “INDAZOLE DERIVATIVES” (Pfizer Inc., priority 2008, published 2011).

Target: human CB1 receptor (Homo sapiens, UniProt P21554)
Assay: Human CB1 receptor binding, [3H] CP-55,940 displacement on HEK cell membranes
Design: expressed in transfected cells; host or cells: HEK cells, doxycycline-induced; membrane preparation
Conditions: CB1 Ki
Experimental: The Human CB1 receptor binding affinity and other biological activities of the compounds of this invention are determined by the following procedures. Membrane preparation: Human Embryonic Kidney (HEK) Cells expressing the human CB1 receptor under transcriptional regulation of a tetracycline inducible promoter were grown in Dulbecco's Modified Essential Medium with sodium pyruvate (Invitrogen, Carlsbad, Calif.) containing 10% tetracycline free fetal bovine serum (Clonetech, Mountain View, Calif.) 100 μg/ml hygromycin (Calbiochem, San Diego, Calif.), 5 μg/ml blasticidin (Invitrogen). CB1 receptor expression was induced by addition of 1 μg/ml doxycycline (Calbiochem) and incubation for an additional 24 hours. Cells were released from flasks using Cell Dissociation Buffer (Invitrogen). Cells were pelleted by centrifugation at 500×G for 5 minutes. Membranes were prepared by resuspending cells in ice cold TEE Buffer (25 mM Tris pH 7.4, 5 mM EDTA, 5 mM EGTA, Complete Protease Inhibitor (Roche, Basel, Switzerland)). Cells were lysed with 12 strokes of a dounce homogenizer. Unlysed cells were pelleted by centrifugation at 500×G for 5 minutes. Membranes were pelleted by centrifugation at 25,000×G for 30 minutes. Membranes were resuspended in TEE, dounced 12 strokes, and pelleted a second time at 25,000×G for 30 minutes. Membrane pellet was resuspended in 50 mM Tris pH 7.4, 100 mM NaCl, 3 mM MgCl2, 0.2 mM EGTA, Complete Protease Inhibitor (Roche). Protein concentration was determined using the Micro-BCA Protein Assay Kit (Pierce, Rockford, Ill.) using BSA as a standard. Membranes were quick frozen and stored at −80 degrees Celsius until use.
Binding experiments: 50 μl of test compound was incubated with 50 μl of [^3H] CP-55,940 (Perkin Elmer, Boston, Mass.) (final concentration=[…]) and 150 μl of membrane homogenate (1 μg/well) in polypropylene 96-well plates (Corning, Acton, Mass.). Final reaction conditions were 50 mM Tris pH 7.4, 100 mM NaCl, 3 mM MgCl2, 0.2 mM EGTA, 0.04% BSA. Nonspecific binding was determined by incubation with 50 μM WIN-55, 212-2 (Tocris, Ellisville, Mo.). After incubation at room temperature for 60 minutes reactions were harvested by vacuum filtration through Unifilter GF/B-96 filters (Perkin Elmer) that had been presoaked in assay buffer containing 0.5% BSA (Sigma, St. Louis, Mo.) using a FilterMate Plate Harvester (Perkin Elmer). Filters were rinsed 4 times with 50 mM Tris pH 7.4, 0.025% Tween-20 and dried at 50 degrees Celsius for at least 30 minutes. 40 μl of Microscint-20 (Perkin Elmer) was added per well, and plates were counted using a Top-Count Microplate Scintillation Counter (Perkin Elmer). Binding data were analyzed and EC50 and K, values calculated using Graph Pad Prism 4.0 Software.

Chain of human CB1 receptor (P21554 whole entry): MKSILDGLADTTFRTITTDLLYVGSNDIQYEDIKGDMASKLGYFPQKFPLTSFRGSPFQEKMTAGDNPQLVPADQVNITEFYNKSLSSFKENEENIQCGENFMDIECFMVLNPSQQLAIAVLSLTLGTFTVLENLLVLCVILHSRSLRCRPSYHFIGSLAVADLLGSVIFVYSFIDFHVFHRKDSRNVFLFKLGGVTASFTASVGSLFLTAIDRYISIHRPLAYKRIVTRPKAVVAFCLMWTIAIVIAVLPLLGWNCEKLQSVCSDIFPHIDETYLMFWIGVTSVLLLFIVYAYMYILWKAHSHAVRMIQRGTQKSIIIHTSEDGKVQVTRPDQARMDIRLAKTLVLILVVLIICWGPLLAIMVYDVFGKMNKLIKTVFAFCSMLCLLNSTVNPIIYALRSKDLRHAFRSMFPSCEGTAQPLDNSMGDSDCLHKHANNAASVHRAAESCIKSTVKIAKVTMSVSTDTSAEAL

| SMILES | Ki [nM] |
| --- | --- |
| CC(C)(C)[C@@H](NC(=O)c1nn(Cc2ccc(C#N)cc2)c2ccccc12)C(N)=O [Example 383] | > 400 |
| CC(C)(C)[C@H](NC(=O)c1nn(Cc2ccc(C#N)cc2)c2ccccc12)C(=O)NC[C@H](O)CO [Example 384] | 286 |
| COc1cc(C#N)ccc1Cn1nc(C(=O)N[C@H](C(N)=O)C(C)(C)C)c2ccccc21 [Example 385] | 166 |
| COc1cc(C#N)ccc1Cn1nc(C(=O)N[C@H](C(=O)NCCO)C(C)(C)C)c2ccccc21 [Example 386] | 209 |
| COc1cc(C#N)ccc1Cn1nc(C(=O)N[C@H](C(=O)NC[C@H](O)CO)C(C)(C)C)c2ccccc21 [Example 387] | > 400 |
| COc1cc(C#N)ccc1Cn1nc(C(=O)N[C@H](C(=O)NCC(N)=O)C(C)(C)C)c2ccccc21 [Example 388] | > 400 |
| COc1cc(C#N)ccc1Cn1nc(C(=O)N[C@H](C(=O)NC[C@@H](O)CO)C(C)(C)C)c2ccccc21 [Example 389] | > 400 |
| COc1cc(C#N)ccc1Cn1nc(C(=O)N[C@H](C(=O)NCCS(N)(=O)=O)C(C)(C)C)c2ccccc21 [Example 390] | > 400 |
| COc1cc(C#N)ccc1Cn1nc(C(=O)N[C@H](C(=O)NC(CO)CO)C(C)(C)C)c2ccccc21 [Example 391] | > 400 |
| COc1cc(C#N)ccc1Cn1nc(C(=O)N[C@H](C(=O)NCCS(C)(=O)=O)C(C)(C)C)c2ccccc21 [Example 392] | > 400 |
| COc1cc(C#N)ccc1Cn1nc(C(=O)N[C@H](C(=O)NC2CC2)C(C)(C)C)c2ccccc21 [Example 393] | > 400 |
| COc1cc(C#N)ccc1Cn1nc(C(=O)N[C@@H](C(N)=O)C(C)(C)C)c2ccccc21 [Example 394] | > 400 |
| CC(C)(C)[C@H](NC(=O)c1nn(Cc2ccc(C#N)cc2)c2ccccc12)C(=O)N[C@H]1C[C@@H](C(N)=O)C1 [Example 396] | 239 |
| CC(C)(C)[C@H](NC(=O)c1nn(Cc2ccc(C#N)cc2F)c2ccccc12)C(=O)N[C@H]1C[C@@H](C(N)=O)C1 [Example 397] | 243 |
| COc1cc(C#N)ccc1Cn1nc(C(=O)N[C@H](C(=O)N[C@H]2C[C@@H](C(N)=O)C2)C(C)(C)C)c2ccccc21 [Example 399] | > 400 |
| CC(C)(C)[C@H](NC(=O)c1nn(Cc2ccc(C#N)cc2)c2ccccc12)C(=O)NCC1CCC(=O)N1 (some centres unmarked) [Example 401] | > 400 |
| CC(C)(C)[C@H](NC(=O)c1nn(Cc2ccc(C#N)cc2)c2c(F)cccc12)C(=O)NCC1CCC(=O)N1 (some centres unmarked) [Example 402] | 277 |
| CC(C)(C)[C@H](NC(=O)c1nn(Cc2ccc(C#N)cc2)c2cc(F)ccc12)C(=O)NCC1CCC(=O)N1 (some centres unmarked) [Example 403] | > 400 |
| CC(C)NC(=O)[C@@H](NC(=O)c1nn(Cc2ccc(C#N)cc2)c2ccccc12)C(C)(C)C [Example 405] | 48.1 |
| CC(C)(C)[C@H](NC(=O)c1nn(Cc2ccc(C#N)cc2)c2ccccc12)C(=O)NC1CCC1 [Example 406] | 89.7 |
| CC(C)(C)[C@H](NC(=O)c1nn(Cc2ccc(C#N)cc2)c2ccccc12)C(=O)NCC1CC1 [Example 407] | 36.2 |
| CC(C)(C)[C@H](NC(=O)c1nn(Cc2ccc(C#N)cc2)c2ccccc12)C(=O)NO [Example 412] | > 400 |
| CC(C)(C)[C@H](NC(=O)c1nn(Cc2ccc(F)cc2)c2ccc(Cl)cc12)C(=O)NCCO [Example 428] | 0.89 |

| SMILES | Ki [nM] |
| --- | --- |
| CC(C)(C)[C@H](NC(=O)c1nn(Cc2ccc(F)cc2)c2ccc(Cl)cc12)C(N)=O [Example 429] | 0.44 |
| CC(C)(C)[C@H](NC(=O)c1nn(Cc2ccc(F)cc2)c2ccc(Cl)cc12)C(=O)NCC(N)=O [Example 430] | 18.2 |
| CC(C)(C)[C@H](NC(=O)c1nn(Cc2ccc(F)cc2)c2ccc(Cl)cc12)C(=O)NC[C@H](O)CO [Example 431] | 13.6 |
| CC(C)(C)[C@H](NC(=O)c1nn(Cc2ccc(F)cc2)c2ccc(Cl)cc12)C(=O)NCCS(C)(=O)=O [Example 433] | 35.5 |
| CC(C)(C)[C@H](NC(=O)c1nn(Cc2ccc(F)cc2)c2ccc(Cl)cc12)C(=O)NC[C@@H](O)CO [Example 434] | 55.1 |
| CC(C)(C)[C@H](NC(=O)c1nn(Cc2ccc(F)cc2)c2ccc(Cl)cc12)C(=O)NC(CO)CO [Example 435] | 6.5 |
| CC(C)(C)[C@H](NC(=O)c1nn(Cc2ccc(F)cc2)c2ccc(Cl)cc12)C(=O)NC1CC1 [Example 436] | 1.13 |
| CC(C)NC(=O)[C@@H](NC(=O)c1nn(Cc2ccc(F)cc2)c2ccc(Cl)cc12)C(C)(C)C [Example 437] | 2.79 |
| CC(C)(C)[C@H](NC(=O)c1nn(Cc2ccc(F)cc2)c2ccc(Cl)cc12)C(=O)NCC1CC1 [Example 439] | 3.26 |
| CC(C)(C)[C@H](NC(=O)c1nn(Cc2ccc(C#N)cc2)c2ccc(Cl)cc12)C(N)=O [Example 440] | 104 |
| CC(C)(C)[C@H](NC(=O)c1nn(Cc2ccc(C#N)cc2)c2ccc(Cl)cc12)C(=O)NC[C@H](O)CO [Example 441] | > 400 |
| CC(C)(C)[C@H](NC(=O)c1nn(Cc2ccc(C#N)cc2)c2ccc(Cl)cc12)C(=O)NCCS(C)(=O)=O [Example 442] | > 400 |
| CC(C)(C)[C@H](NC(=O)c1nn(Cc2ccc(C#N)cc2)c2ccc(Cl)cc12)C(=O)NCC(N)=O [Example 443] | > 400 |
| CC(C)(C)[C@H](NC(=O)c1nn(Cc2ccc(C#N)cc2)c2ccc(Cl)cc12)C(=O)NCCS(N)(=O)=O [Example 444] | > 400 |
| CC(C)(C)[C@H](NC(=O)c1nn(Cc2ccc(C#N)cc2)c2ccc(Cl)cc12)C(=O)NC[C@@H](O)CO [Example 445] | > 400 |
| CC(C)(C)[C@H](NC(=O)c1nn(Cc2ccc(C#N)cc2)c2ccc(Cl)cc12)C(=O)NC1CC1 [Example 446] | 168 |
| CC(C)(C)[C@H](NC(=O)c1nn(Cc2ccc(C#N)cc2)c2ccc(Cl)cc12)C(=O)NCCO [Example 447] | 170 |
| CC(C)(C)[C@H](NC(=O)c1nn(Cc2ccc(C#N)cc2)c2ccc(Cl)cc12)C(=O)NC(CO)CO [Example 448] | > 400 |
| CC(C)(C)[C@H](NC(=O)c1nn(Cc2ccc(C#N)cc2)c2ccc(Cl)cc12)C(=O)NC1CCC1 [Example 449] | > 400 |
| CC(C)NC(=O)[C@@H](NC(=O)c1nn(Cc2ccc(C#N)cc2)c2ccc(Cl)cc12)C(C)(C)C [Example 450] | 241 |
| CC(C)(C)[C@H](NC(=O)c1nn(Cc2ccc(C#N)cc2)c2ccc(Cl)cc12)C(=O)NCC1CC1 [Example 451] | > 400 |
| CC(C)(C)[C@H](NC(=O)c1nn(Cc2ccc(C#N)cc2)c2ccccc12)C(=O)N[C@H]1CNC(=O)C1 [Example 452] | > 400 |
| CC(C)(C)[C@H](NC(=O)c1nn(Cc2ccc(C#N)cc2)c2c(F)cccc12)C(=O)N[C@H]1CNC(=O)C1 [Example 453] | > 400 |

Same assay, conditions: read-out: CB1 Ki

| SMILES | Ki [nM] |
| --- | --- |
| CC(C)(C)[C@H](NC(=O)c1nn(Cc2ccc(F)cc2)c2ccccc12)C(=O)NCC(=O)NC(CO)CO [Example 377] | 22.5 |
| CC(C)(C)[C@H](NC(=O)c1nn(Cc2ccc(F)cc2)c2ccccc12)C(=O)NCC(=O)N1C[C@@H](O)[C@H](O)C1 [Example 378] | 158 |
| CC(C)(C)[C@H](NC(=O)c1nn(Cc2ccc(F)cc2)c2ccccc12)C(=O)NCC(=O)N(CCO)CCO [Example 379] | > 400 |
| CCOC(=O)[C@H]1C[C@@H](NC(=O)[C@@H](NC(=O)c2nn(Cc3ccc(C#N)cc3)c3ccccc23)C(C)(C)C)C1 [Example 380] | > 400 |
| CCOC(=O)[C@H]1C[C@@H](NC(=O)[C@@H](NC(=O)c2nn(Cc3ccc(C#N)cc3F)c3ccccc23)C(C)(C)C)C1 [Example 382] | 238 |
| CN1CC(CNC(=O)[C@@H](NC(=O)c2nn(Cc3ccc(C#N)cc3)c3ccccc23)C(C)(C)C)CC1=O (some centres unmarked) [Example 408] | > 400 |
| CN1CC(CNC(=O)[C@@H](NC(=O)c2nn(Cc3ccc(C#N)cc3)c3c(F)cccc23)C(C)(C)C)CC1=O (some centres unmarked) [Example 409] | 73 |
| CN1CC(CNC(=O)[C@@H](NC(=O)c2nn(Cc3ccc(C#N)cc3)c3cc(F)ccc23)C(C)(C)C)CC1=O (some centres unmarked) [Example 410] | 104 |
| CC(C)(C)[C@H](NC(=O)c1nn(Cc2ccc(F)cc2)c2ccccc12)C(=O)NCc1nnc2n1CCC2 [Example 419] | 110 |
| CC(C)(C)[C@H](NC(=O)c1nn(Cc2ccc(F)cc2)c2c(Cl)cccc12)C(=O)NCc1ccc(C(=O)O)cc1 [Example 426] | 90 |
